# Measured values published in patent US9266867B2, “Piperidinyl monocarboxylic acids as S1P1 receptor agonists” (BIOPROJET, priority 2011, dated 2016).
# Where a name gives a salt, the structure may show the parent alone.
# Biological target: EDG-1 (Homo sapiens, UniProt P21453)
# Assay: 35S-GTPγS binding assay, EDG1 (S1P1)
# Type: biochemical
# Set-up: expressed in transfected cells
# Details: Table 1b; read-out: EDG1 EC50
# Experimental: a) 35S-GTPγS Binding Assay GTP-γ-^35S binding was performed using […]15 μg protein of cell membranes suspended in 50 mM tris-HCl pH 7.5 containing 10 mM MgCl2, 100 mM NaCl and 10 μM GDP. The radioligand was 0.025 nM [^35S] GTP-γ-S and non specific binding determined in the presence of 10 μM non-radioactive GTP-γ-S. […] The maximal stimulation elicited by S1P was taken as a reference to define full or partial agonism and calculate the intrinsic activity (i.a.) of compounds.
# EDG-1, sequence (P21453 whole entry): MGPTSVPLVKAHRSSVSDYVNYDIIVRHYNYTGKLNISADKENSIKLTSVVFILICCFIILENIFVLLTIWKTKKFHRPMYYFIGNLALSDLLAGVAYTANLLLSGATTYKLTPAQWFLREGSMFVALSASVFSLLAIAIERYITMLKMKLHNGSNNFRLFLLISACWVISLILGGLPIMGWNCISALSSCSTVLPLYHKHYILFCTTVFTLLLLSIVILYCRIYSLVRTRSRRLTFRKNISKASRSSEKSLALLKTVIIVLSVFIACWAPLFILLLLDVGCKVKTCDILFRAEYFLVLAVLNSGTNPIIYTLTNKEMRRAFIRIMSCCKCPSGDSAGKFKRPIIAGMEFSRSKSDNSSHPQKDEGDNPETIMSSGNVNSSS
row,Structure (SMILES),EC50
1,"CC(C)Cc1ccc(-c2nc(-c3ccc(CN4CCC(C(=O)O)(C(C)C)CC4)cc3)no2)cc1Cl [Example 37, 1-{4-[5-(3-Chloro-4-isobutyl-phenyl)-[1,2,4]-oxadiazol-3-yl]-benzyl}-4-isopropyl-piperidine-4-carboxylic acid tert-butyl amine salt]",< 1 nM
2,"COc1ccc(CC2(C(=O)O)CCN(Cc3ccc(-c4noc(-c5ccc(CC(C)C)c(Cl)c5)n4)cc3)CC2)cc1 [Example 27, 1-{4-[5-(3-Chloro-4-isobutyl-phenyl)-[1,2,4]-oxadiazol-3-yl]-benzyl}-4-(4-methoxy-benzyl)-piperidine-4-carboxylic acid tert-butyl amine salt]",< 1 nM
3,"CC(C)Oc1ccc(-c2nc(-c3ccc(CN4CCC(C)(C(=O)O)CC4)cc3)no2)cc1Cl [Example 44, 1-{4-[5-(3-Chloro-4-isopropoxy-phenyl)-[1,2,4]-oxadiazol-3-yl]-benzyl}-4-methyl-piperidine-4-carboxylic acid tert-butyl amine salt]",< 10 nM
4,"COc1ccccc1OCCC1(C(=O)O)CCN(Cc2ccc(-c3noc(-c4ccc(CC(C)C)c(Cl)c4)n3)cc2)CC1 [Example 41, 1-{4-[5-(3-Chloro-4-isobutyl-phenyl)-[1,2,4]-oxadiazol-3-yl]-benzyl}-4-[2-(2-methoxy-phenoxy)-ethyl]-piperidine-4-carboxylic acid tert-butyl amine salt]",< 1 nM
5,"CC(C)Cc1ccc(-c2nc(-c3ccc(CN4CCC(Cc5cccc(C(F)(F)F)c5)(C(=O)O)CC4)cc3)no2)cc1Cl [Example 38, 1-{4-[5-(3-Chloro-4-isobutyl-phenyl)-[1,2,4]-oxadiazol-3-yl]-benzyl}-4-(3-trifluoromethyl-benzyl)-piperidine-4-carboxylic acid tert-butyl amine salt]",< 10 nM

# Now from value to compound:
row,EC50,Structure (SMILES)
1,< 1 nM,"CCC1(C(=O)O)CCN(Cc2ccc(-c3noc(-c4ccc(-c5ccccc5)c(Cl)c4)n3)cc2)CC1 [Example 30, 1-{4-[5-(2-Chlorobiphenyl-4-yl)-[1,2,4]-oxadiazol-3-yl]-benzyl}-4-ethylpiperidine-4-carboxylic acid tert-butyl amine salt]"
2,< 1 nM,"O=C(O)C1(Cc2ccc(F)cc2)CCN(Cc2ccc(-c3noc(-c4ccc(-c5ccccc5)c(Cl)c4)n3)cc2)CC1 [Example 52, 1-{4-[5-(2-Chloro-biphenyl-4-yl)-[1,2,4]-oxadiazol-3-yl]-benzyl}-4-(4-fluoro-benzyl)-piperidine-4-carboxylic acid tert-butyl amine salt]"
3,< 10 nM,"CC(C)Cc1ccc(-c2nc(-c3ccc(CN4CCC(Cc5ccccc5)(C(=O)O)CC4)cc3)no2)cc1Cl [Example 24, 4-Benzyl-1-[4-{5-(3-chloro-4-isobutylphenyl)-[1,2,4]-oxadiazol-3-yl]benzyl}-piperidine-4-carboxylic acid tert-butyl amine salt]"
4,< 1 nM,"O=C(O)C1(Cc2ccccc2)CCN(Cc2ccc(-c3noc(-c4ccc(-c5ccccc5)c(Cl)c4)n3)cc2)CC1 [Example 55, 4-Benzyl-1-{4-[5-(2-chloro-biphenyl-4-yl)-[1,2,4]-oxadiazol-3-yl]-benzyl}-piperidine-4-carboxylic acid tert-butyl amine salt]"
5,< 1 nM,"COCCOCC1(C(=O)O)CCN(Cc2ccc(-c3noc(-c4ccc(-c5ccccc5)c(Cl)c4)n3)cc2)CC1 [Example 19, 1-{4-[5-(2-Chlorobiphenyl-4-yl)-[1,2,4]-oxadiazol-3-yl]-benzyl}-4-(2-methoxyethoxymethyl)piperidine-4-carboxylic acid tert-butyl amine salt]"
6,< 1 nM,"O=C(O)C1(CO)CCN(Cc2ccc(-c3noc(-c4ccc(-c5ccccc5)c(Cl)c4)n3)cc2)CC1 [Example 22, 1-{4-[5-(2-Chlorobiphenyl-4-yl)-[1,2,4]-oxadiazol-3-yl]-benzyl}-4-hydroxymethylpiperidine-4-carboxylic acid tert-butyl amine salt]"
